From PMC11327196, “A phase 1 study to assess the absolute bioavailability, mass balance, pharmacokinetics, metabolism, and excretion of [^14C]-mobocertinib, an oral inhibitor of EGFR exon 20 insertion mutations, in healthy participants” (Investigational New Drugs, 2024)

Assay: Period 1: excretion in urine and feces after IV [14C]-mobocertinib
Assay type: in vivo, human
Conditions: Period 1, IV infusion 50 µg (~2 µCi) [14C]-mobocertinib
Experimental: On Day 1 of Period 1, following an overnight fast of at least 10 h, participants received a single 160 mg dose of non-radiolabeled mobocertinib as capsules. At 3.75 h post oral dosing (i.e., 15 min before the median oral tmax of ~ 4 h), participants received a nominal dose of 50 µg (~ 2 µCi) [^14C]-mobocertinib as a 15-minute IV infusion. However, due to nonspecific binding of [^14C]-mobocertinib to the dosing syringe and tubing, actual doses administered ranged from 36.8 to 38.7 µg (1.47 to 1.55 µCi). Participants were required to stay in the clinic from Day − 1 through at least the 96-hour blood draw (Day 5) or until a discharge criterion was met (i.e., ≥ 80% of the total administered radioactive dose was recovered in urine and fecal samples or excretion of radioactivity in urine and feces combined had declined to ≤ 1% of the total administered dose per day for ≥ 2 consecutive intervals), up to a maximum of 7 days postdose (Day 8). Blood samples for the measurement of plasma mobocertinib, AP32960, and AP32914 concentrations were collected predose and at 0.5, 1, 2, 3, 4, 5, 6, 8, 12, 24, 36, 48, 72, and 96 h after oral administration. Additional blood samples to determine [^14C]-total radioactivity, [^14C]-mobocertinib, [^14C]-AP32960, and [^14C]-AP32914 in plasma were collected at 3.75 h after oral dosing (i.e., predose for [^14C] assessments), at the end of the IV infusion, and at 10, 20, and 30 min, and 1, 2, 4, 8, 20, 32, 44, 68, and 92 h after the end of infusion. […]
Plasma, whole blood, and urine samples were assayed for mobocertinib, AP32960, and AP32914 concentrations using liquid chromatography-tandem mass spectrometry (Q2 Solutions, Ithaca, New York, USA). […] Urine and fecal samples were assayed for total radioactivity following the IV dose of [^14C]-mobocertinib in Period 1, and whole blood, plasma, urine, and fecal samples were assayed for total radioactivity following the oral dose of [^14C]-mobocertinib in Period 2 using liquid scintillation counting (LSC; Celerion, Lincoln, Nebraska, USA; LLOQs: Period 1 urine: 0.115–0.118 ng eq/g, feces: 0.720–0.759 ng eq/g; Period 2 whole blood: 87.3–112 ng eq/g, plasma: 116–132 ng eq/mL, urine: 37.8–46.8 ng eq/g, feces: 110–336 ng eq/g across participants). Urine and fecal samples collected in Period 1 that had total radioactivity concentration equivalents below the LLOQ of the Celerion LSC assay were sent to Pharmaron for measurement by AMS (LLOQ: urine: 0.0000253–0.00111 ng eq/g; feces: 0.000404–0.0278 ng eq/g across participants). […]

administered radioactive dose excreted in urine as analyte: 1.5%
dose recovered as total radioactivity in feces overall: 69.9%
dose recovered as total radioactivity in urine overall: 4.7%
radioactive dose excreted in feces as analyte: 2.5%
Substance: [^14C]-mobocertinib
